# Assay results from ChEMBL document CHEMBL1201862, “PubChem BioAssay data set” (2004).
# Where a name gives a salt, the structure may show the parent alone.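 How tested: cells in 96-well plates exposed to compound for 48 hours at five concentrations. GI50 marks 50% less growth.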 Calls of active or inactive are those of the source. Rule as the data show it: active = GI50 up to about 1.1 µM and inactive = higher.
# Key:
# Test in all cases: NCI tumour cell line growth inhibition, 48 h
# A549 = system: A549
# ACHN = system: ACHN
# EKVX = system: EKVX
# HOP-18 = system: HOP-18
# Hs-578T = system: Hs-578T
# KM12 = system: KM12
# LXFL 529 = system: LXFL 529
# MDA-MB-231 = system: MDA-MB-231
# Malme-3M = system: Malme-3M
# NCI-H522 = system: NCI-H522
# OVCAR-3 = system: OVCAR-3
# OVCAR-5 = system: OVCAR-5
# RPMI-8226 = system: RPMI-8226
# SK-MEL-28 = system: SK-MEL-28
# 786-0 = system: 786-0
# DU-145 = system: DU-145
# HCC 2998 = system: HCC 2998
# MDA-N = system: MDA-N
# SK-MEL-2 = system: SK-MEL-2
# TK-10 = system: TK-10
SMILES,GI50 (A549),GI50 (ACHN),GI50 (EKVX),GI50 (HOP-18),GI50 (Hs-578T),GI50 (KM12),GI50 (LXFL 529),GI50 (MDA-MB-231),GI50 (Malme-3M),GI50 (NCI-H522),GI50 (OVCAR-3),GI50 (OVCAR-5),GI50 (RPMI-8226),GI50 (SK-MEL-28),GI50 (786-0),GI50 (DU-145),GI50 (HCC 2998),GI50 (MDA-N),GI50 (SK-MEL-2),GI50 (TK-10)
CC[C@@]1(O)C(=O)OCc2c1cc1n(c2=O)Cc2cc3c(CN(C)C)c(O)ccc3nc2-1 [TOPOTECAN HYDROCHLORIDE],0.0475 µM (active),0.0237 µM (active),0.333 µM (active),0.254 µM (active),1.1 µM (active),0.518 µM (active),2.29 µM (inactive),2.25 µM (inactive),0.188 µM (active),0.0306 µM (active),0.24 µM (active),0.121 µM (active),0.276 µM (active),0.239 µM (active),,,,,,
CN(C)CC1CCCCCCCCCC(CN(C)C)C1=O (centres undefined),> 34.8 µM (inactive),> 31 µM (inactive),> 39.9 µM (inactive),> 100 µM (inactive),8.18 µM (inactive),> 21.4 µM (inactive),> 100 µM (inactive),17.3 µM (inactive),> 35.2 µM (inactive),2.7 µM (inactive),> 20.3 µM (inactive),> 49.1 µM (inactive),> 22 µM (inactive),32.1 µM (inactive),> 20.6 µM (inactive),12.9 µM (inactive),> 100 µM (inactive),5.62 µM (inactive),> 42.9 µM (inactive),> 37.8 µM (inactive)
COc1ccc2[nH]c3c(C)c4c(c(C)c3c2c1)CN(C)C=C4,0.873 µM (active),13.2 µM (inactive),2.49 µM (inactive),7.38 µM (inactive),0.24 µM (active),1.35 µM (inactive),0.218 µM (active),12.1 µM (inactive),1.21 µM (inactive),1.2 µM (inactive),4.53 µM (inactive),7.57 µM (inactive),7.24 µM (inactive),3.44 µM (inactive),0.191 µM (active),5.37 µM (inactive),2.71 µM (inactive),15 µM (inactive),2.62 µM (inactive),15.1 µM (inactive)
O=Cc1cc2c(cc1-c1cc3c(cc1C=O)OCO3)OCO2,50.4 µM (inactive),71.8 µM (inactive),> 100 µM (inactive),> 100 µM (inactive),,83 µM (inactive),> 100 µM (inactive),,> 100 µM (inactive),64.1 µM (inactive),55.6 µM (inactive),> 100 µM (inactive),30.3 µM (inactive),95.1 µM (inactive),> 100 µM (inactive),,> 100 µM (inactive),,> 100 µM (inactive),> 100 µM (inactive)
COc1ccc(/C=C\c2cc(OC)c(OC)c(OC)c2)c(O)c1O [COMBRETASTATIN A-1],0.178 µM (active),0.203 µM (active),1.99 µM (inactive),> 26.4 µM (inactive),< 0.01 µM (active),0.0658 µM (active),0.611 µM (active),0.0148 µM (active),0.678 µM (active),0.0942 µM (active),,4.37 µM (inactive),0.0757 µM (active),5.41 µM (inactive),0.69 µM (active),0.0127 µM (active),0.166 µM (active),< 0.01 µM (active),0.0451 µM (active),2.92 µM (inactive)
